In ChEMBL document CHEMBL1201862, “PubChem BioAssay data set” (2004):
Where a name gives a salt, the structure may show the parent alone. Activity calls are given as the source filed them.

Experiments:
[1] = biological target: Eukaryotic translation initiation factor 4E (Mus musculus, UniProt P63073); test: blockers of eIF4G binding by eIF4E – biochemical, TR-FRET, dose response (AID 855); assay type: functional;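 further: potency for disrupting eIF4E binding to eIF4GI seen as loss of FRET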
[2] = biological target: T1, Epstein-Barr nuclear antigen 1 (Epstein-Barr virus (strain B95-8) (HHV-4) (Human herpesvirus 4), UniProt P03211); test: inhibition of EBV nuclear antigen 1 DNA binding – biochemical, fluorescence polarization, 1536-well, dose response (AID 2381); design: species or system human gammaherpesvirus 4;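 further: fluorescence polarization of a Cy5 DNA probe bound by EBNA-1 protein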
T1 sequence (P03211 whole entry): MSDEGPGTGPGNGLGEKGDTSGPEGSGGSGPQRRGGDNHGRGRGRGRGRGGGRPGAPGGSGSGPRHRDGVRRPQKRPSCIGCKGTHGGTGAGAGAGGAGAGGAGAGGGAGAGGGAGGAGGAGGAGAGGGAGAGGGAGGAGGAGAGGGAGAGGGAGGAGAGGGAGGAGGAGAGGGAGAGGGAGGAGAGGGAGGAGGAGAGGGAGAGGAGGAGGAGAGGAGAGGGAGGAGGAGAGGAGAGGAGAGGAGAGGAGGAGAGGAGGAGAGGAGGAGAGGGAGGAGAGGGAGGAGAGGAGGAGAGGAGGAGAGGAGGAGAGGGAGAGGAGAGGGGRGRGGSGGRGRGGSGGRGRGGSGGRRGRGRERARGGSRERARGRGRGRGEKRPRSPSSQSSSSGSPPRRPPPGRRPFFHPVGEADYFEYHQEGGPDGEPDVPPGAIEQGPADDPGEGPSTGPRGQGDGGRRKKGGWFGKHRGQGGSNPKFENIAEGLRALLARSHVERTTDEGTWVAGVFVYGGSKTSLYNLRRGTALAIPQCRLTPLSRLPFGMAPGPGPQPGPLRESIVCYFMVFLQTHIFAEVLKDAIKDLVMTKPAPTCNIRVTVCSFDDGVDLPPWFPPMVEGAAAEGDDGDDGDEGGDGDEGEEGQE

[3] = biological target: T2, Lytic switch protein BZLF1 (Epstein-Barr virus (strain B95-8) (HHV-4) (Human herpesvirus 4), UniProt P03206); test: inhibition of BZLF1 ZTA DNA binding – biochemical, fluorescence polarization, Epstein-Barr virus, 1536-well, counter-screen for EBNA-1 inhibitor project, dose response (AID 2377); design: species or system human gammaherpesvirus 4;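 further: fluorescence polarization of Cy5-labelled ZRE DNA probe bound by purified Zta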
T2 sequence (P03206 whole entry): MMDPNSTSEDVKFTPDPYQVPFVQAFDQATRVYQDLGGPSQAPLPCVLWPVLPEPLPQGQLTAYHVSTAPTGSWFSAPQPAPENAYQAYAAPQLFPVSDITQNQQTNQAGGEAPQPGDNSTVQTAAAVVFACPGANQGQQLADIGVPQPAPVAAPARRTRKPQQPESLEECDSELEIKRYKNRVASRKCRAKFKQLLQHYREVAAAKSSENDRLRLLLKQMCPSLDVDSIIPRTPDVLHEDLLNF

[4] = viability of uninfected HEp-2 cells – cell-based, HTS, cytotoxicity control for RSV inhibitor project, dose response (AID 2410); assay type: functional; settings: human respiratory syncytial virus
[5] = cells
[6] = biological target: Voltage-dependent T-type calcium channel subunit alpha-1H (Homo sapiens, UniProt O95180); assay type: functional;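 further: channel activity triggered by adding a high calcium stimulation buffer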
[7] = THP-1 cell cytotoxicity, dose response, cytotoxicity control for non-replicating M. tuberculosis project (AID 489025); assay type: functional
[8] = cells; assay type: functional
[9] = HEK-293T cell viability reduction – luminescence, B-cell screen hits, cytotoxicity control for BCR NF-kB inhibitor project, dose response (AID 489021); assay type: functional, cell-based;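 further: HEK-293T cells carrying an NF-kB luciferase reporter; cells exposed to compound for about 14 hours before viability readout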
[10] = system: Vero; test: cells; assay type: functional, cell-based; settings: Chlorocebus sabaeus
[11] = biological target: T3, Heat shock factor protein 1 (Mus musculus, UniProt P38532); test: decrease of HSF1-responsive luciferase luminescence – cell-based, NIH3T3, dose retest, confirmation (AID 2382); assay type: functional;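 further: NIH3T3 fibroblasts with HSF1-driven luciferase reporter stressed by proteasome inhibitor MG132; luminescence from HSF1-driven luciferase expression after 8 hours of MG132 stress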
T3 sequence (P38532 whole entry): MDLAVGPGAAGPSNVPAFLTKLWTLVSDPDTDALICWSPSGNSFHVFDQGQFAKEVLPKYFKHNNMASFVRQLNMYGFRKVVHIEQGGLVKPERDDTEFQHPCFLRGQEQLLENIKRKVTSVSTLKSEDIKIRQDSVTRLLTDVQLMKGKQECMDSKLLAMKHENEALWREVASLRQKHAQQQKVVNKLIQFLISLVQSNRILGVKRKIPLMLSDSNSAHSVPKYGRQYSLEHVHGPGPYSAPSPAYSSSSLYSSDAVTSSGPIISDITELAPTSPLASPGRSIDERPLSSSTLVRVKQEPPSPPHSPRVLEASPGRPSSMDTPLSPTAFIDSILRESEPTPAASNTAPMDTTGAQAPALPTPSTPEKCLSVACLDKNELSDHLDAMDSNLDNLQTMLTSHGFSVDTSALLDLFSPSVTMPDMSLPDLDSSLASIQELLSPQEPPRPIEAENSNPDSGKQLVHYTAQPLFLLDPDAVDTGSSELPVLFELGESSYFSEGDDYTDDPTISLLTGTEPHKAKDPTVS

[12] = biological target: T4, Microphthalmia-associated transcription factor (Homo sapiens, UniProt O75030); test: reducers of TRPM1 reporter luminescence, concentration series – cell-based, SK-MEL-5, cherry-picked, set 3, MITF inhibitor project, dose response (AID 493073); assay type: functional;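 further: SK-MEL-5 melanoma cells with luciferase driven by the MITF target TRPM1 promoter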
T4 sequence (O75030 whole entry): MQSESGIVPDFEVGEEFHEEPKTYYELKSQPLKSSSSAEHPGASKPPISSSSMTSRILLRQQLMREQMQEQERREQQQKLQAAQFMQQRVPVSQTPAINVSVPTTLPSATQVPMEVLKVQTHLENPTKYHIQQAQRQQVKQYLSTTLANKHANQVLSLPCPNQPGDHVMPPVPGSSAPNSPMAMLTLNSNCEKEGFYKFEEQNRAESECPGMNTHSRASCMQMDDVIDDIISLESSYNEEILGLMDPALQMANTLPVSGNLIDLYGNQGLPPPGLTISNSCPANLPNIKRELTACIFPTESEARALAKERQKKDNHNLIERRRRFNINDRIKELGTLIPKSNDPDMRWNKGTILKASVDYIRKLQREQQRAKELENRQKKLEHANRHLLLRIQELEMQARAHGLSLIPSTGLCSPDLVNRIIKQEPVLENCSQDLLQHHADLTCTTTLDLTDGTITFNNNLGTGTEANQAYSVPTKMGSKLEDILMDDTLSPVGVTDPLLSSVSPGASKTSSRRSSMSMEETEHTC

[13] = biological target: T5, Replicative DNA helicase DnaB (Mycobacterium tuberculosis, UniProt P9WMR3); test: DnaB intein splicing inhibitors, dose response, biochemical, cell-free fluorescence (AID 449749); assay type: functional
T5 sequence (P9WMR3 whole entry): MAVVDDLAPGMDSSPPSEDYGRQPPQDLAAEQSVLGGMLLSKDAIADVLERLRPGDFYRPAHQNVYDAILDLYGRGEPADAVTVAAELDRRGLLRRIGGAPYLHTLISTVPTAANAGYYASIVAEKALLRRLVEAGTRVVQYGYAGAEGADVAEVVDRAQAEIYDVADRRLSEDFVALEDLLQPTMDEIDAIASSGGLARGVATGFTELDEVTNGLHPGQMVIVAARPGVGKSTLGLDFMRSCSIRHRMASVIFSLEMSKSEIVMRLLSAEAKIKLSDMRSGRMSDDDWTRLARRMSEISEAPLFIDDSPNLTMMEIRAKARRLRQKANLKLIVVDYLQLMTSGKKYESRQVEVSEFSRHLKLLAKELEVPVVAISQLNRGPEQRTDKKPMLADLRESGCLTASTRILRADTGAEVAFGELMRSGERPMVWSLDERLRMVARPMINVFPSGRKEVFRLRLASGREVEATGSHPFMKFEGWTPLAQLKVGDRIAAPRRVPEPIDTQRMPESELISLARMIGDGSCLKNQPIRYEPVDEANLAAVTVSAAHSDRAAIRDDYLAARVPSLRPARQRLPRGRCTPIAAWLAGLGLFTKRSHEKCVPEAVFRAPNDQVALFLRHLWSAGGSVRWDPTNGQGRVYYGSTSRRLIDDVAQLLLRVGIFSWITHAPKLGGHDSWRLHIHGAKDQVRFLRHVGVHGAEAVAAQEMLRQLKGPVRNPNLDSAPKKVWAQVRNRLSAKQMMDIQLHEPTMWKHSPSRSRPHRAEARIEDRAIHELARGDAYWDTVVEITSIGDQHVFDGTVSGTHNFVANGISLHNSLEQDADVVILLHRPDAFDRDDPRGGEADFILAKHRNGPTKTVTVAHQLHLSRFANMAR

[14] = biological target: T6, Protein RecA (Mycobacterium tuberculosis, UniProt P9WHJ3); test: Fluorescence Cell-Free Homogeneous Dose Retest to Identify Inhibitors of RecA-Intein Splicing Activity. [Related pubchem assays (depositor defined):AID2097, AID2223, AID489010, AID492950]; assay type: functional
T6 sequence (P9WHJ3 whole entry): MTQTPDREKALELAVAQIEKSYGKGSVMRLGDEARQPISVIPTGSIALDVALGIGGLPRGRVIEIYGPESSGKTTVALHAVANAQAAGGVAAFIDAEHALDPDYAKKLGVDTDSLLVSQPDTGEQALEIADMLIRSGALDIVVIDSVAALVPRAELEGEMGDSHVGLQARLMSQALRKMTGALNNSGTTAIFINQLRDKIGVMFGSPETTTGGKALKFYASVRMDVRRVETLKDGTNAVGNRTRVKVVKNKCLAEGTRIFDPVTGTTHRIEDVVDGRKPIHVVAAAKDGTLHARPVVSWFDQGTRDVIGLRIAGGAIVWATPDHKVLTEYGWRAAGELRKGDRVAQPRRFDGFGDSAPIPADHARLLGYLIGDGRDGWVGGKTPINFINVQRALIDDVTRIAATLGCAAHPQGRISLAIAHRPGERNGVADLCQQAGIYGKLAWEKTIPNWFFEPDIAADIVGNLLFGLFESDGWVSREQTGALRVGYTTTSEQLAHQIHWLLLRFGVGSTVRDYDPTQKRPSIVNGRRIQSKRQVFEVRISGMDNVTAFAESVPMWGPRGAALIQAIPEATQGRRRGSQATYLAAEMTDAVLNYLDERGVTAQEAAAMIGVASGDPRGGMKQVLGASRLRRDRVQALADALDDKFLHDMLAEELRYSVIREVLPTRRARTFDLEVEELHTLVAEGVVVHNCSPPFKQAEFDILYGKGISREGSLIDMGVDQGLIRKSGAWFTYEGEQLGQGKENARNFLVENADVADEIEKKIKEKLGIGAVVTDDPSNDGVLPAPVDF

[15] = system: Vero; test: cells; assay type: functional; settings: Chlorocebus sabaeus
[16] = biological target: Luciferin 4-monooxygenase (Photinus pyralis, UniProt P08659); test: Counter Screen for Luciferase-based Assay Positives. [Related pubchem assays: 620, 618, 411 ]
[17] = system: HT-1080; test: HT1080 cell viability loss – fluorescence readout (AID 620); assay type: functional, cell-based; settings: Homo sapiens

Voltage-dependent T-type calcium channel subunit alpha-1H, sequence (O95180 whole entry): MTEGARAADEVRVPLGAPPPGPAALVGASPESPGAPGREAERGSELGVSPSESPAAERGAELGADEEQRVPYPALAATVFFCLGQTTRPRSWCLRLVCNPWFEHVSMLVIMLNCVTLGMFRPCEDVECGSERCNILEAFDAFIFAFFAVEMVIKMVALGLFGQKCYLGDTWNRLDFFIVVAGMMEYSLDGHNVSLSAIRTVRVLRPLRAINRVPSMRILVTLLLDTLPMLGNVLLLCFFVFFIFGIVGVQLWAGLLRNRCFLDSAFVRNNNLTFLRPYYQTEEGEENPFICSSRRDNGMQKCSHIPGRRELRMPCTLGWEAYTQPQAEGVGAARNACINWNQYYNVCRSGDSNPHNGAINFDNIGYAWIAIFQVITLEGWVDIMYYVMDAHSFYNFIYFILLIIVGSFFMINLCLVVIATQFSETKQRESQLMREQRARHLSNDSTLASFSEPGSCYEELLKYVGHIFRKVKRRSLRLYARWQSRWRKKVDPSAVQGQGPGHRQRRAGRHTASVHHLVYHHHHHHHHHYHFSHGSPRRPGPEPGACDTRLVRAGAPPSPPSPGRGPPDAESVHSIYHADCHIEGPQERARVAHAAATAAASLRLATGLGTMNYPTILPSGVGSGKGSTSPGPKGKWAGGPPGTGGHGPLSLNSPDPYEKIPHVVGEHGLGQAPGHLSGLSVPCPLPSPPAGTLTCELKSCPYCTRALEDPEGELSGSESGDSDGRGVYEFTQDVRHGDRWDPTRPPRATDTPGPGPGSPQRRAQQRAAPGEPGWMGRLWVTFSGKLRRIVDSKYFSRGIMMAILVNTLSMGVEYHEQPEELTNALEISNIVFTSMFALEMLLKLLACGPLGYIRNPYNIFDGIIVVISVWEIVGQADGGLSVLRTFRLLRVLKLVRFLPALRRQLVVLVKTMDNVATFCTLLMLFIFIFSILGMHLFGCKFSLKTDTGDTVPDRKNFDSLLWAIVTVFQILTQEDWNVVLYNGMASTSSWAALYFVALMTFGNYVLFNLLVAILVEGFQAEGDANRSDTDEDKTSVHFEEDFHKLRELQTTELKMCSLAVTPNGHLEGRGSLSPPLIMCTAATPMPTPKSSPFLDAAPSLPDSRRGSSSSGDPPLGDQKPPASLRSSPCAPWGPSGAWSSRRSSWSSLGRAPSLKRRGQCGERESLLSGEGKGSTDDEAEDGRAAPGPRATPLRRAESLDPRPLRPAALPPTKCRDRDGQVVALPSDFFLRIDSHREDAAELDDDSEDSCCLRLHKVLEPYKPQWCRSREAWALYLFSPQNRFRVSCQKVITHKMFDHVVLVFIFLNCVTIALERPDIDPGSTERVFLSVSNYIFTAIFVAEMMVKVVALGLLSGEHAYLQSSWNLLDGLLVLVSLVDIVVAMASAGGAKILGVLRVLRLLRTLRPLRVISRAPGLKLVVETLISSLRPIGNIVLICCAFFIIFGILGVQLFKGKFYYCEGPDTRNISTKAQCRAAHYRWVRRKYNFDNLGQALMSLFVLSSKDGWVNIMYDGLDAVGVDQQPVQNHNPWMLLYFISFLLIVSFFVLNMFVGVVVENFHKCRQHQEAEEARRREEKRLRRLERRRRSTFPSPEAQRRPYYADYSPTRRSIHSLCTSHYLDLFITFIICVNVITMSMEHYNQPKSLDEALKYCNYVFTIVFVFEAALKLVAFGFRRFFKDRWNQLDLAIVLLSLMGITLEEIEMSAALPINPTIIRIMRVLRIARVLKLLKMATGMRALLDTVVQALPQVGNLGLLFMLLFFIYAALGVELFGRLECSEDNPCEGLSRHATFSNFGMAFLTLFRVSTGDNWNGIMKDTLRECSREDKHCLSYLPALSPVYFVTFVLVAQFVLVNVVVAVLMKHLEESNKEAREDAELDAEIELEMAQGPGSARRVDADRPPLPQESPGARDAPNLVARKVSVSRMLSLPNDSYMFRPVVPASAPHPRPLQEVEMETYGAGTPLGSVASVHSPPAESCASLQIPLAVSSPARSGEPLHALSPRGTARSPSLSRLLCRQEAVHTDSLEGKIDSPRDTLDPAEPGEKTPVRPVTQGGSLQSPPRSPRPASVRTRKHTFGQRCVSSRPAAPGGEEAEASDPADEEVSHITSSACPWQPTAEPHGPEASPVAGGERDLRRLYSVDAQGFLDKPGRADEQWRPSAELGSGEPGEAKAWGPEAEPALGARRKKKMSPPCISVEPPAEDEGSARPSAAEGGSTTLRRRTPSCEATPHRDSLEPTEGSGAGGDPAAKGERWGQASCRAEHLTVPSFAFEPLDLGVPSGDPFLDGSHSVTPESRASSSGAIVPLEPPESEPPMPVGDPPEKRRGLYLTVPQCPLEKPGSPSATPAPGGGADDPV
Eukaryotic translation initiation factor 4E, sequence (P63073 whole entry): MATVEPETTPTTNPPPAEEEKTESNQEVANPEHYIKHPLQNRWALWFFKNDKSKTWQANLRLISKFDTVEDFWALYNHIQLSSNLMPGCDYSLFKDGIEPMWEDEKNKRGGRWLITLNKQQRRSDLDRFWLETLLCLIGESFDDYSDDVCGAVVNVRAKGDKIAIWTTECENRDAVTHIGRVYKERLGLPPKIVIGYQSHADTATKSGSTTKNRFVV
Luciferin 4-monooxygenase, sequence (P08659 whole entry): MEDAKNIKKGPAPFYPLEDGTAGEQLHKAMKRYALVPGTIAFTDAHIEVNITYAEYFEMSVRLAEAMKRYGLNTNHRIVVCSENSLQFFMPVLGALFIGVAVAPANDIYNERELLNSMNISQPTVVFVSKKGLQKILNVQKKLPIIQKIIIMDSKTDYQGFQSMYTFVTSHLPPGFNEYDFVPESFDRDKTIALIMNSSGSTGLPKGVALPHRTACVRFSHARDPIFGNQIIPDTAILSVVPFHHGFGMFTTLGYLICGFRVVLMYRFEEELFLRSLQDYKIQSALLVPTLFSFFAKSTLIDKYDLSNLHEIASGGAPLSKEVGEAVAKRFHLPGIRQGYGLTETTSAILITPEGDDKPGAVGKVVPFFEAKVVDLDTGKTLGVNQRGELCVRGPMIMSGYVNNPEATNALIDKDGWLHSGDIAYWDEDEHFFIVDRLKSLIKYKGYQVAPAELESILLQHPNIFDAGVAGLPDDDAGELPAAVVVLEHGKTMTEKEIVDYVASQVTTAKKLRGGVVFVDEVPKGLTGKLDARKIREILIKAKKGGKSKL

SMILES: CCCCOc1cc(C(=O)NCCN(CC)CC)c2ccccc2n1 [DIBUCAINE HYDROCHLORIDE]
- IC50 [1]: 50 µM (inactive)

SMILES: O=C(Nc1ccccc1F)c1cc2c(s1)-c1ccccc1S(=O)(=O)C2
- IC50 [2]: 15.9 µM (not active)
- IC50 [3]: 93.7 µM (not active)

SMILES: COc1ccc(-c2nnc(OCc3nc4ccccc4n3C)c3ccccc23)cc1
- CC50 [4]: 38.6 µM (active)
- IC50 [5]: 14.7 µM (active)

SMILES: O=C(CSc1nnc(Cc2cccs2)n1-c1ccccc1)NCc1ccc2c(c1)OCO2
- EC50 [6]: 8.23 µM (active)

SMILES: C#CCSc1nnc(-c2ccc(C)cc2)o1
- CC50 [7]: > 40 µM (active)
- IC50 [8]: 26.4 µM (active)

SMILES: CSc1cccc(NC(=O)CSc2ccccc2)c1
- EC50 [6]: 9.9 µM (active)

SMILES: CCN1C(=O)c2cccc3c(S(=O)(=O)Nc4ccccn4)ccc1c23
- IC50 [9]: > 80 µM (inactive)

SMILES: C/C(N)=C(/C#N)C(=O)CN1C(=O)NC(Cc2c[nH]c3ccccc23)C1=O (stereo not drawn)
- IC50 [5]: 1.91 µM (active)

SMILES: CCOc1ccccc1CNC(=O)c1cc2oc3ccccc3c2n1C
- CC50 [4]: 18.7 µM (active)
- IC50 [10]: 4.91 µM (active)
- IC50 [5]: 9.25 µM (active)

SMILES: O=C(Nc1ccc(F)cc1)c1cc(S(=O)(=O)Nc2ccc(F)cc2)cs1
- EC50 [6]: 2.88 µM (active)

SMILES: Cc1ccc(NC(=O)CSc2nnc(NC(=O)c3ccc(S(=O)(=O)N4CCOCC4)cc3)s2)cc1
- IC50 [2]: 15.7 µM (not active)
- IC50 [3]: > 111 µM (not active)

SMILES: COc1cc(-c2nc3n(n2)C(c2cccc(OC)c2OC)C2=C(O)CCCC2=N3)cc(OC)c1OC (stereo not drawn)
- IC50 [2]: 12.9 µM (not active)
- IC50 [3]: > 111 µM (not active)

SMILES: C=CCOc1ccc(/C=C2\SC(=S)N(CCC(=O)O)C2=O)cc1
- EC50 [11]: 5.69 µM (active)
- AC50 [12]: 0.337 µM (active)
- IC50 [9]: > 80 µM (inactive)

SMILES: COc1ccc(-c2cn3c(C)c(C(=O)NCc4ccc5c(c4)OCO5)sc3n2)cc1
- IC50 [2]: 4.84 µM (active)
- IC50 [3]: > 111 µM (not active)

SMILES: CC(=O)NC1=C(Nc2ccc(N(C)C)cc2)C(=O)c2ccccc2C1=O
- CC50 [4]: 15.3 µM (active)
- AC50 [13]: 34.5 µM (active)
- IC50 [10]: 24.7 µM (active)
- EC50 [14]: 46.6 µM (active)
- CC50 [15]: > 25 µM (active)
- IC50 [5]: 17.5 µM (active)

SMILES: O=C1NC(=O)C(CCc2ccncc2)(CCc2ccncc2)C(=O)N1Cc1ccccc1
- EC50 [11]: > 195 µM (not active)
- IC50 [1]: 50 µM (inactive)

SMILES: CN(C)CC/C=C1\c2cc(Cl)ccc2Sc2cc(F)c(F)cc21
- CC50 [7]: 38.8 µM (active)
- IC50 [8]: 18.2 µM (active)
- CC50 [15]: > 25 µM (active)

SMILES: COc1ccc(/C=C2\SC(=O)N(CCCC(=O)Nc3ccc(C(=O)O)cc3)C2=O)cc1OC
- IC50 [9]: > 80 µM (inactive)

SMILES: Cc1ccc(-n2nc3ccc(N)cc3n2)cc1
- EC50 [16]: > 100 µM (not active)
- EC50 [17]: > 50 µM (not active)
